Legend:
CLOCK and BMAL1 [1] = experiment: Subcellular fractionation of U2OS Bmal1-dLuc cells; assay type: cell-based, human; settings: unsynchronized U2OS Bmal1-dLuc cells, 5 μM, 24 hours
Description: Subcellular fractionation was performed to explore if CLK95 effects the subcellular localization of core-clock proteins. U2OS Bmal1-dLuc cells were plated with a density of 40×10^4 cell/well in 6 well plate, a day prior to small molecule treatment. Following, cells were treated with either DMSO (0.25%) or 5 μM CLK95. 24 hours after small molecule treatment, cells were harvested to get fractionated. Cells were harvested with 1 mL ice cold-1×PBS, and pelleted at 5000×g for 7 minutes at 4° C. After discarding supernatants, cells were resuspended with 200 μL Cytosolic Lysis Buffer (CLB) (10 mM HEPES pH 7.9, 10 mM KCl, 0.1 mM EDTA pH 8.0, 0.05% NP-40, 1×PIC) and incubated on ice for 10 minutes. Then, samples were centrifuged at 660×g for 5 minutes (4° C.). While supernatants were transferred to new centrifuge tubes as cytosolic fractions, pellets were washed with 200 μL CLB buffer for 3 times. At the end of each wash, samples were centrifugated at 660×g for 5 minutes at 4° C. Next, cell pellets were resuspended in 100 μL Nuclear Lysis Buffer (NLB) (20 mM HEPES pH 7.9, 0.4M NaCl, 1 mM EDTA, 10% Glycerol, 1×PIC) and subjected to sonication (60% power, 10 seconds, 3 cycles) (BANDELIN SONOPULS HD 2070 homogeniser) for 2 times. This step was followed by centrifugation at 15000×g for 5 minutes with the cytosolic fractions. […]

CLOCK and BMAL1 [2] = experiment: Effect on core clock protein levels (western blot), U2OS Bmal1-dLuc cells; assay type: cell-based, human; settings: unsynchronized U2OS Bmal1:dLuc cells, 24 hours
Description: The effect of CLK95 on core-clock proteins was assessed both on synchronized and unsynchronized U2OS Bmal1-dLuc cells. Cells were seeded into 6 well-plates with a density of 45×10^4 cell/well and incubated at 37° C. under 5% CO2 for 16 hours. For unsynchronized cells, they were treated with appropriate amounts CLK95 (final 0.25% DMSO) and further incubated for 24 hours. For synchronized cells, cell media was exchanged with 0.1 μM Dexamethasone containing DMEM. After synchronization, cells were subjected to the CLK95 (final 0.25% DMSO). After 24 hours of incubation, cells were harvested with 6 hours intervals for 7 time points (24H-60H). Then harvested cells were lysed with 90 μL RIPA buffer (50 mM Tris-HCl pH 7.4, 150 mM NaCl, 1% Triton x-100, 0.1% SDS, 1×PIC) and left for an incubation on ice for 30 minutes. Following, samples were centrifugated at 15000×g for 20 minutes at 4° C. After boiling samples with Laemmli buffer for 7 minutes at 95° C., 10 μg of protein was loaded for each sample to 10% SDS-polyacrylamide gel. For Western blot analysis following antibodies used to determine the level of core clock proteins: anti-CLOCK (Bethyl, A302-618A), anti-BMAL1 (Santa Cruz Biotech., SC-365645), anti-PER2 (Proteintech, 67513-1-Ig), anti-CRY1 (Bethyl, A302-614A), and anti-β-Actin (Cell Signaling, 8H10D10) antibodies.

## CC1(c2ccc3ccccc3c2)NC(=O)N(CC(=O)Nc2nc(-c3ccc4c(c3)CCC4)cs2)C1=O (centres unmarked) [CLK95]
CLOCK and BMAL1 [1]
  nuclear localization of CLOCK and BMAL1: increasing the nuclear localization of CLOCK and BMAL1
CLOCK and BMAL1 [2]
  CLOCK and BMAL1 protein levels: increased

Source: patent US20250275948A1, “(N-[4-(2,3-DIHYDRO-1H-INDEN-5-YL)-1,3-THIAZOL-2-YL]-2-[4-METHYL-4-(NAPHTHALEN-2-YL)-2,5-DIOXOIMIDAZOLIDIN-1-YL]ACETAMIDE AS STABILIZER OF CLOCK:BMAL1 INTERACTION FOR THE TREATMENT OF CIRCADIAN RHYTHM DISEASES AND DISORDERS” (KOC UNIVERSITESI, priority 2022, published 2025)
